From patent publication US10383894B2, “Human medicinal treatment using salt of peroxymonosulfuric acid” (LuTran Industries, Inc., priority 2010, dated 2019)

Tests used:
Type in all cases: in vivo, human
[1] = system: bronchitis; assay: Treatment of persons with bronchitis with the Medicine (Examples 12-14); conditions: Example 13: prior treatment, no dose given
From the text: (§1) Given below are examples of using the medicinal drug of type I/II for treating allergic rhinitis, osteoarthritis, gouty arthritis, bronchitis, hemorrhoids, urticaria, toothache, tinea pedis, acute viral nasopharyngitis, herpes simplex, dandruff, itching, bromhidrosis, and vaginitis. The formulation of the drug of type I/II used in these examples was the preferred formulation, mentioned above, in which the drug was formed with potassium hydrogen peroxymonosulfate as the active oxygen-releasing material, sodium chloride as the inorganic halide, sodium hexametaphosphate as the alkali metal phosphate, sulfamic acid, malic acid as the non-reducing organic acid, and sodium dodecylbenzene sulfonate as the surfactant at approximately the typical mass percentages mentioned above. A formulation approximating this formulation is commercially available in the product Virkon. This formulation of the drug of type I/II is referred to below as the “Medicine”. […]

[2] = system: gouty arthritis; assay: Treatment of persons with gouty arthritis with the Medicine (Examples 9-11); conditions: no dose given; for patient-reported outcome of previously tried treatments: Example 11: prior treatment
From the text: Given below are examples of using the medicinal drug of type I/II for treating allergic rhinitis, osteoarthritis, gouty arthritis, bronchitis, hemorrhoids, urticaria, toothache, tinea pedis, acute viral nasopharyngitis, herpes simplex, dandruff, itching, bromhidrosis, and vaginitis. The formulation of the drug of type I/II used in these examples was the preferred formulation, mentioned above, in which the drug was formed with potassium hydrogen peroxymonosulfate as the active oxygen-releasing material, sodium chloride as the inorganic halide, sodium hexametaphosphate as the alkali metal phosphate, sulfamic acid, malic acid as the non-reducing organic acid, and sodium dodecylbenzene sulfonate as the surfactant at approximately the typical mass percentages mentioned above. A formulation approximating this formulation is commercially available in the product Virkon. This formulation of the drug of type I/II is referred to below as the “Medicine”.
The Medicine for each person infected with allergic rhinitis, osteoarthritis, gouty arthritis, bronchitis, hemorrhoids, urticaria, toothache, tinea pedis, acute viral nasopharyngitis, herpes simplex, dandruff, itching, bromhidrosis, and vaginitis is provided for topical, intranasal, oral, or/and injection administration 1-12 times per day, preferably 1-8 times per day, more preferably 1-6 times per day, typically 1-4 times per day, in liquid form at a dosage of 0.00001-5%, preferably 0.001-3%, more preferably 0.1-2%, typically 0.5-1%, for a time of contact of 1 minute-12 hours, preferably 1 minute-6 hours, more preferably 1 minute-2 hours, typically 1-30 minutes . The treatment period in each in each of the following examples is normally 1-12 months, preferably 1-6 months, more preferably 1-3 months, typically 1-30 days.
A retired adult had gouty arthritis for 10 years. The […] reported that they were in excruciating pain on random days and that previously attempted treatments for the pain were unsuccessful. […]

[3] = system: osteoarthritis; assay: Treatment of persons with osteoarthritis with the Medicine (Examples 6-8); conditions: Example 6: prior treatment, no dose given
From the text: as §1

[4] = system: itching; assay: Treatment of persons with itching with the Medicine (Examples 41-43); conditions: no dose given
From the text: as §1

[5] = system: vaginitis; assay: Treatment of persons with vaginitis with the Medicine (Examples 48-50); conditions: no dose given
From the text: as §1

[6] = system: dandruff; assay: Treatment of persons with dandruff with the Medicine (Examples 37-40); conditions: Example 37: prior treatment, (some of) these decreased the amount of dandruff
From the text: Given below are examples of using the medicinal drug of type I/II for treating allergic rhinitis, osteoarthritis, gouty arthritis, bronchitis, hemorrhoids, urticaria, toothache, tinea pedis, acute viral nasopharyngitis, herpes simplex, dandruff, itching, bromhidrosis, and vaginitis. […] A formulation approximating this formulation is commercially available in the product Virkon. This formulation of the drug of type I/II is referred to below as the “Medicine”.
The Medicine was provided to […] as a 1% solution for topical administration by scrubbing the Medicine into their scalp and hair for 5 minutes and then washing their scalp and hair. The […] reported that they administered the Medicine to themself in the foregoing manner 4 times a week for 2 weeks.

[7] = system: acute viral nasopharyngitis; assay: Treatment of persons with acute viral nasopharyngitis with the Medicine (Examples 28-32); conditions: Example 30: prior treatment, no dose given

Question: `COc1ccc2c3c1O[C@H]1[C@@H](O)C=C[C@H]4[C@@H](C2)N(C)CC[C@@]341` [codeine] was tested. Which “patient-reported outcome of previously tried treatments for bronchitis” value [1] did it give?
Answer: little success

Question: How did the “patient-reported outcome of previously tried treatments” value [2] turn out when `COc1cc2c(c(OC)c1OC)-c1ccc(OC)c(=O)cc1[C@@H](NC(C)=O)CC2` [colchicines, colchicine] was run?
Answer: without significant success

Question: `N[C@H]1C(O)O[C@H](CO)[C@@H](O)[C@@H]1O` (some centres unmarked) [glucosamine] was tested. Which “patient-reported outcome of previously tried treatments for osteoarthritis” value [3] did it give?
Answer: without effective relief

Question: Which results are given for `C[C@]12CCC(=O)C=C1CC[C@@H]1[C@@H]2[C@@H](O)C[C@@]2(C)[C@H]1CC[C@]2(O)C(=O)CO` [hydrocortisone]?
Answer: patient-reported outcome of previously tried treatments for itching ([4]; Example 42: prior treatment): without success; patient-reported outcome of previously tried treatments for itching ([4]; Example 43: prior treatment): little success; patient-reported outcome of previously tried treatments for vaginitis ([5]; Example 48: prior treatment): without significant success; patient-reported outcome of previously tried treatments for vaginitis ([5]; Example 50: prior treatment): to no avail

Question: Which results are given for `CC(C)Cc1ccc(C(C)C(=O)O)cc1` (centres unmarked) [ibuprofen]?
Answer: patient-reported outcome of previously tried treatment for gouty arthritis ([2]; Example 10: prior treatment): no significant success; patient-reported outcome of previously tried treatments [2]: without significant success

Question: `CC(=O)N1CCN(c2ccc(OCC3COC(Cn4ccnc4)(c4ccc(Cl)cc4Cl)O3)cc2)CC1` (centres unmarked) [ketoconazole] was tested. Which “patient-reported outcome of previously tried treatments for dandruff” value (“patient-reported outcome … for dandruff” for short) [6] did it give?
Answer: dandruff was still visible on their scalp

Question: With `CC(=O)Nc1ccc(O)cc1` [paracetamol] as the compound, how does the “patient-reported outcome of previously tried treatments for acute viral nasopharyngitis” value [7] read?
Answer: little success

Question: How did the “patient-reported outcome of previously tried treatments for acute viral nasopharyngitis” value [7] turn out when `CN[C@@H](C)[C@@H](O)c1ccccc1` [pseudoephedrine] was run?
Answer: little success

Question: With `S=[Se]=S` [selenium sulfide] as the compound, how does the “patient-reported outcome … for dandruff” value [6] read?
Answer: dandruff was still visible on their scalp

Question: With zinc pyrithione as the compound, how does the “patient-reported outcome … for dandruff” value [6] read?
Answer: dandruff was still visible on their scalp
